Test results from patent US8952024B2, “Herbicidal pyrimidone derivatives” (E I du Pont de Nemours and Company, priority 2009, dated 2015).

Tests used:
Assay in all cases: Test B pre-/postemergence plant response
Format in all cases: in vivo
Conditions in all cases: Postemergence
[1] = tested on: goosegrass (Eleusine indica)
How it was run: (§1)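 Ratings reflect visual comparison with untreated controls 13 to 15 days after application, from 0 (no effect) to 100 (complete control). Application was preemergence to seeded loam/sand soil or postemergence to 1- to 4-leaf plants, with compound in a non-phytotoxic, surfactant-containing solvent.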

[2] = tested on: large crabgrass (Digitaria sanguinalis)
How it was run: as §1

[3] = tested on: johnsongrass (Sorghum halepense)
How it was run: as §1

[4] = tested on: velvetleaf (Abutilon theophrasti)
How it was run: as §1

[5] = tested on: pigweed (Amaranthus retroflexus)
How it was run: as §1

kochia (Kochia scoparia) = tested on: kochia (Kochia scoparia)
How it was run: as §1

[6] = tested on: yellow nutsedge (Cyperus esculentus)
How it was run: as §1

[7] = tested on: wheat (Triticum aestivum)
How it was run: as §1

[8] = tested on: downy bromegrass (Bromus tectorum)
How it was run: as §1

[9] = tested on: giant foxtail (Setaria faberii)
How it was run: as §1

[10] = tested on: woolly cupgrass (Eriochloa villosa)
How it was run: as §1

[11] = tested on: lambsquarters (Chenopodium album)
How it was run: as §1

[12] = tested on: green foxtail (Setaria viridis)
How it was run: as §1

[13] = 31 g ai/ha, 0 to 100 scale (0 no effect, 100 complete control)
[14] = 62 g ai/ha, scale 0 to 100 (0 no effect, 100 complete control)
[15] = 125 g ai/ha, scale 0 (no effect) to 100 (complete control), 13 to 15 days
[16] = 250 g ai/ha, scale 0 to 100 (0 no effect, 100 complete control), 13 to 15 days

CCCCn1c(-c2cccc(F)c2)ncc(C(=O)C2=C(O)C3CCC(C3)C2=O)c1=O (stereo not shown) [Compound 237]
98: Plant response rating, Goosegrass [1, 14] | Plant response rating, Goosegrass [1, 15] | Plant response rating, Goosegrass [1, 16] | Plant response rating, Crabgrass, Large [2, 14] | Plant response rating, Pigweed [5, 14] | Plant response rating, Foxtail, Giant [9, 13] | Plant response rating, Foxtail, Giant [9, 14] | Plant response rating, Foxtail, Giant [9, 15]
20: Plant response rating, Nutsedge, Yellow [6, 13]
30: Plant response rating, Bromegrass, Downy [8, 13]
50: Plant response rating, Wheat [7, 13]
70: Plant response rating, Wheat [7, 14]
35: Plant response rating, Nutsedge, Yellow [6, 14]
45: Plant response rating, Nutsedge, Yellow [6, 15] | Plant response rating, Nutsedge, Yellow [6, 16] | Plant response rating, Bromegrass, Downy [8, 14]
90: Plant response rating, Velvetleaf [4, 14] | Plant response rating, Bromegrass, Downy [8, 15] | Plant response rating, Foxtail, Green [12, 14]
85: Plant response rating, Velvetleaf [4, 13] | Plant response rating, Wheat [7, 15] | Plant response rating, Wheat [7, 16]
80: Plant response rating, Pigweed [5, 13] | Plant response rating, Kochia (kochia (Kochia scoparia); [14]) | Plant response rating, Foxtail, Green [12, 13]
95: Plant response rating, Goosegrass [1, 13] | Plant response rating, Crabgrass, Large [2, 13] | Plant response rating, Bromegrass, Downy [8, 16] | Plant response rating, Lambsquarters [11, 13] | Plant response rating, Foxtail, Green [12, 15] | Plant response rating, Foxtail, Green [12, 16]
65: Plant response rating, Kochia (kochia (Kochia scoparia); [13])
100: Plant response rating, Crabgrass, Large [2, 15] | Plant response rating, Crabgrass, Large [2, 16] | Plant response rating, Johnsongrass [3, 13] | Plant response rating, Johnsongrass [3, 14] | Plant response rating, Johnsongrass [3, 15] | Plant response rating, Johnsongrass [3, 16] | Plant response rating, Velvetleaf [4, 15] | Plant response rating, Velvetleaf [4, 16] | Plant response rating, Pigweed [5, 15] | Plant response rating, Pigweed [5, 16] | Plant response rating, Kochia (kochia (Kochia scoparia); [15]) | Plant response rating, Kochia (kochia (Kochia scoparia); [16]) | Plant response rating, Foxtail, Giant [9, 16] | Plant response rating, Cupgrass, Woolly [10, 13] | Plant response rating, Cupgrass, Woolly [10, 14] | Plant response rating, Cupgrass, Woolly [10, 15] | Plant response rating, Cupgrass, Woolly [10, 16] | Plant response rating, Lambsquarters [11, 14] | Plant response rating, Lambsquarters [11, 15] | Plant response rating, Lambsquarters [11, 16]

COCCCn1c(-c2cccc(F)c2)ncc(C(=O)C2=C(O)C3CCC(C3)C2=O)c1=O (stereo not shown) [Compound 238]
80: Plant response rating, Velvetleaf [4, 13] | Plant response rating, Wheat [7, 15] | Plant response rating, Wheat [7, 16]
40: Plant response rating, Wheat [7, 13] | Plant response rating, Bromegrass, Downy [8, 14]
50: Plant response rating, Bromegrass, Downy [8, 15]
25: Plant response rating, Nutsedge, Yellow [6, 16]
10: Plant response rating, Bromegrass, Downy [8, 13]
98: Plant response rating, Goosegrass [1, 14] | Plant response rating, Goosegrass [1, 15] | Plant response rating, Goosegrass [1, 16] | Plant response rating, Crabgrass, Large [2, 14] | Plant response rating, Crabgrass, Large [2, 15] | Plant response rating, Crabgrass, Large [2, 16] | Plant response rating, Johnsongrass [3, 15] | Plant response rating, Kochia (kochia (Kochia scoparia); [14]) | Plant response rating, Foxtail, Green [12, 15] | Plant response rating, Foxtail, Green [12, 16]
100: Plant response rating, Johnsongrass [3, 16] | Plant response rating, Velvetleaf [4, 15] | Plant response rating, Velvetleaf [4, 16] | Plant response rating, Pigweed [5, 13] | Plant response rating, Pigweed [5, 14] | Plant response rating, Pigweed [5, 15] | Plant response rating, Pigweed [5, 16] | Plant response rating, Kochia (kochia (Kochia scoparia); [15]) | Plant response rating, Kochia (kochia (Kochia scoparia); [16]) | Plant response rating, Foxtail, Giant [9, 13] | Plant response rating, Foxtail, Giant [9, 14] | Plant response rating, Foxtail, Giant [9, 15] | Plant response rating, Foxtail, Giant [9, 16] | Plant response rating, Cupgrass, Woolly [10, 14] | Plant response rating, Cupgrass, Woolly [10, 15] | Plant response rating, Cupgrass, Woolly [10, 16] | Plant response rating, Lambsquarters [11, 13] | Plant response rating, Lambsquarters [11, 14] | Plant response rating, Lambsquarters [11, 15] | Plant response rating, Lambsquarters [11, 16]
60: Plant response rating, Johnsongrass [3, 13]
90: Plant response rating, Velvetleaf [4, 14] | Plant response rating, Kochia (kochia (Kochia scoparia); [13])
20: Plant response rating, Nutsedge, Yellow [6, 13] | Plant response rating, Nutsedge, Yellow [6, 14] | Plant response rating, Nutsedge, Yellow [6, 15]
85: Plant response rating, Bromegrass, Downy [8, 16] | Plant response rating, Foxtail, Green [12, 13]
95: Plant response rating, Goosegrass [1, 13] | Plant response rating, Crabgrass, Large [2, 13] | Plant response rating, Cupgrass, Woolly [10, 13] | Plant response rating, Foxtail, Green [12, 14]
45: Plant response rating, Wheat [7, 14]
